Results published in patent US20050277617A1, “Drugs against articular failure” (KABUSHIKI KAISHA HAYASHIBARA SEIBUTSU KAGAKU KENKYUJO, priority 2000, published 2005).

Tested on: arthritis induced rat
Assay: Arthritis induced by type II collagen immunization in rats; increasing rate of hind foot volume
Format: in vivo
Conditions: for Enhancement of the alleviation effect of amino sugars on arthritis: Experiment 3, saccharide used instead of trehalose in the design of Experiment 1; for Judgment (symbol) of the effect of alleviating arthritis / Relative value of the average of increasing rate of hind foot volume when the average in the control group was regarded as 100: Experiment 1, daily until day 24, GlcN or GlcNAc 100, Ch4S 50, Trehalose 200 mg/kg body weight/day, female Lewis rats
Text: Thirty-six female Lewis rats, aged 6-weeks, were divided into 12 groups consisting of three rats per group. Glucosamine, N-acetylglucosamine, chondroitin 4-sulfate, and crystalline hydrous trehalose, which were all in a reagent grade, and designated as “test compounds” hereinafter), were respectively dissolved in phosphate buffer saline (described as “PBS” hereinafter), and intraperitoneally injected alone or in an appropriate combination daily to the rats of the group Nos. 1 to 11 at the doses in the following Table 2. As a control, PBS was administrated daily to each rat of the group No. 12 at a dose of 1 ml per day by the same administration route as above. Hereinafter, the day number means a day counted from the starting day of administration. In accordance with the method of inducing arthritis by type II collagen immunization described by K. Terato, in “Biomedical research”, Vol. 3, pp. 495-505, 1982, on day 3, 800 μg/head of a type II collagen from bovine in a reagent grade along with Freund's incomplete adjuvant was administered to the dorsal subcutaneous; and on day 10, a fresh preparation of the same collagen and adjuvant as used above were administered at a dose of about 1/10 of that of on day 3. Test compounds were administered to the rats daily until day 24.
During the term of the above experiment, on day 3 just before the administration of collagen and on day 24 just after the administration of the test compounds, both hind foot volumes of every rat were measured according to the method described by D. T. Walz in “Journal of Experimental Therapy”, Vol. 152, pp. 116-121, 1971. Increasing rate (%) of the total hind foot volume of each rat was calculated by substituting the data for the Formula 1 below. Increasing rate of hind foot volume (%)=[{(Measured volume on day 24)−(Measured volume on day 3)}/(Measured volume on day 3)]×100 Formula 1
The effect of alleviating arthritis for each test compound was judged on the basis of the criterion described in the following Table 1, after calculating the averages of increased rates of hind foot volumes in the rats of the group Nos. 1 to 11 and the relative values of the above averages when the average in the control group was regarded as 100. The results are in Table 2
As a result, the effect of glucosamine or N-acetylglucosamine with trehalose was judged as high (symbol “+”) even with the tested minimum amount of 5 mg/kg body weight/day. […]

Compound | Enhancement of the alleviation effect of amino sugars on arthritis | Judgment (symbol) of the effect of alleviating arthritis (intraperitoneal) | Relative value of the average of increasing rate of hind foot volume when the average in the control group was regarded as 100 (intraperitoneal) | also measured
OC[C@H]1O[C@H](O[C@H]2[C@H](O)[C@@H](O)C(O)O[C@@H]2CO)[C@H](O)[C@@H](O)[C@@H]1O (mixture of isomers) [maltose] | no enhanced effect |  |  | 
N[C@H]1C(O)O[C@H](CO)[C@@H](O)[C@@H]1O (some centres unmarked) [GlcN, glucosamine] |  | − (67 or more) | 88 | 
CC(=O)N[C@H]1C(O)O[C@H](CO)[C@@H](O)[C@@H]1O (some centres unmarked) [GlcNAc, N-acetylglucosamine] |  | − (67 or more) | 89 | 
OC[C@H]1O[C@H](O[C@H]2O[C@H](CO)[C@@H](O)[C@H](O)[C@H]2O)[C@H](O)[C@@H](O)[C@@H]1O [Trehalose, trehalose] |  | − (67 or more) | 98 | Increasing rate of hind foot volume compared with the control group (Experiment 1, group No. 6, trehalose alone 200 mg/kg body weight/day, intraperitoneal): No difference
COc1ccc2c(c1)c(CC(=O)O)c(C)n2C(=O)c1ccc(Cl)cc1 [indomethacin] |  |  |  | Increasing rate of hind foot volume (3 mg/kg body weight, some rats, data not shown): < 20%
OC[C@@H](O)[C@@H](O[C@H]1O[C@H](CO)[C@@H](O)[C@H](O)[C@H]1O)[C@H](O)[C@@H](O)CO [maltitol] | no enhanced effect |  |  | 
OC[C@H]1O[C@@H](O[C@H]2O[C@H](CO)[C@@H](O)[C@H](O)[C@H]2O)[C@H](O)[C@@H](O)[C@@H]1O [neotrehalose] | no enhanced effect |  |  | 
OC[C@@H](O)[C@@H](O)[C@H](O)[C@@H](O)CO [sorbitol] | no enhanced effect |  |  | 
chondroitin 4-sulfate [Ch4S] |  | − (67 or more) | 95 | 
